From patent US20240075050A1, “Methods and Compositions for Treating Leucine Rich Repeat Kinase 2 (LRRK2)-Associated Disorder or Condition” (University of Connecticut, priority 2022, published 2024)

Key:
LRRK2 = assay: Endogenous LRRK2 levels in SH-SY5Y cells, Western blot; assay type: cell-based, human
[1] = stated as reason for using the precursor AICAr; cited from earlier work
[2] = test system: [α-32P]cap-labeled LRRK2 RNA; assay: In vitro decapping assay; assay type: biochemical, human; conditions: recombinant Flag-tagged protein from HEK 293T cells, thin layer chromatography

Molecule: N#Cc1c(O)c2c(-c3ccc(-c4ccccc4O)cc3)csc2[nH]c1=O [A769662]
- LRRK2 levels (LRRK2; SH-SY5Y, 10, 20, or 50 μM A769662, 48 hours): no obvious effects

Molecule: Nc1ncnc2nc(-c3ccc(N4CCOCC4)nc3)cc(-c3cccc(Br)c3)c12 [ABT-702]
- effect of AICAr on LRRK2 levels in the presence of ABT-702 (LRRK2; SH-SY5Y, 1 mM AICAr plus 1 μM ABT-702, 48 hours): completely counteracted

Molecule: NC(=O)c1ncn([C@@H]2O[C@H](COP(=O)(O)O)[C@@H](O)[C@H]2O)c1N [AICAR/ZMP, 5-aminoimidazole-4-carboxamide ribonucleotide]
- membrane permeability [1]: membrane impermeable

Molecule: O=[N+]([O-])c1ccc(CSc2ncnc3c2ncn3[C@@H]2O[C@H](CO)[C@@H](O)[C@H]2O)cc1 [NBTI]
- effect of AICAr on LRRK2 levels in the presence of NBTI (LRRK2; SH-SY5Y, 1 mM AICAr plus 50 μM NBT-1, 48 hours): completely abolished

Molecule: DCP2: recombinant Flag-tagged decapping enzyme purified from HEK 293T cells
- LRRK2 mRNA decapping activity (m7GDP level) [2]: decapped LRRK2 mRNA

B1: DCP1A: recombinant Flag-tagged decapping enzyme purified from HEK 293T cells (protein, UniProt Q9NPI6 1-582, looked up)
mRNA-decapping enzyme 1A: MEALSRAGQEMSLAALKQHDPYITSIADLTGQVALYTFCPKANQWEKTDIEGTLFVYRRSASPYHGFTIVNRLNMHNLVEPVNKDLEFQLHEPFLLYRNASLSIYSIWFYDKNDCHRIAKLMADVVEEETRRSQQAARDKQSPSQANGCSDHRPIDILEMLSRAKDEYERNQMGDSNISSPGLQPSTQLSNLGSTETLEEMPSGSQDKSAPSGHKHLTVEELFGTSLPKEQPAVVGLDSEEMERLPGDASQKEPNSFLPFPFEQLGGAPQSETLGVPSAAHHSVQPEITTPVLITPASITQSNEKHAPTYTIPLSPVLSPTLPAEAPTAQVPPSLPRNSTMMQAVKTTPRQRSPLLNQPVPELSHASLIANQSPFRAPLNVTNTAGTSLPSVDLLQKLRLTPQHDQIQTQPLGKGAMVASFSPAAGQLATPESFIEPPSKTAAARVAASASLSNMVLAPLQSMQQNQDPEVFVQPKVLSSAIPVAGAPLVTATTTAVSSVLLAPSVFQQTVTRSSDLERKASSPSPLTIGTPESQRKPSIILSKSQLQDTLIHLIKNDSSFLSTLHEVYLQVLTKNKDNHNL
modifications: Flag tag
notes: recombinant Flag-tagged decapping enzyme purified from HEK 293T cells
- LRRK2 mRNA decapping activity (m7GDP level) [2]: decapped LRRK2 mRNA
